Tested on: CWR22R tumors
Assay: CWR22R xenograft model in nude mice
Format: in vivo, mouse
Conditions: for CWR22R tumor growth: five daily i.v. injections, c52 at 18 mg/kg/day
Text: FIGS. 6A and 6B provide data showing anti-tumor activity of the selected hits in mouse models of androgen-independent PCa. FIG. 6A provides a graphical representation of data obtained from i.p. injection of the listed compounds or DMSO vehicle into nude mice carrying subcutaneous (s.c.) C4-2 tumors. Six daily injections were given starting when tumors were around 100 mm3 in size. There were 4-5 mice per group with two tumors per mouse. Asterisks (*) and number signs (#) are placed under the means of measurement in the c6 and c11 groups respectively which are statistically different from the control group by ANOVA test (>99%) B. C52 (9 mg/kg or 18 mg/kg) or DMSO vehicle was injected into the tail vein of nude mice carrying s.c. CWR22R tumors. Five daily injections were given starting when tumors were around 40 mm3 in size. There were 10 mice per group with one tumor per mouse. Asterisks (*) are placed under the means of measurement which are statistically different from the control group by ANOVA test (>99%). Error bars in both FIGS. 6A and B—standard deviation between the size of tumors within a given treatment group.
Testing of the anti-tumor effect of compounds in mice was done according to an IACUC-approved protocol in 8 week old male athymic nude mice from Harlan (Indianapolis, Ind.). For the C4-2 xenograft model, 10^6 C4-2 cells were injected subcutaneously (s.c.) in 2 sites of each mouse in 50% matrigel (BD Biosciences, Bradford, Mass.) in PBS. Upon development of visible tumors, they were measured using digital caliper. Tumor volume was calculated according to the formula: […]. Mice were injected with compounds i.p. daily for 6 days starting on the day when at least one tumor per mouse reached 100 mm^3 in size. Five mice per group were used. For the CWR22R xenograft model, CWR22R cells were inoculated (10^5 cells per inoculum) in 50% matrigel, one site per mouse. Treatment was started when the tumor grew to a size of at least 25 mm^3. Compounds were diluted in captisol (CyDex, Lenexa, Kans.) and delivered intravenously (to reduce “first pass” liver effect) once a day for 5 days. Ten mice per group were used. Mice were monitored daily and tumors were measured every other day. Mice were euthanized according to institutional regulations when the size of tumor reached 1000 mm^3. Comparison of the tumor growth in control and treated mice was done using ANOVA test.
ARTIK compounds, c52 and c85, were also tested in the CWR22R model.

## CCCn1c2ccccc2c2cc(C(C)=O)ccc21 [c52]
Among 10 mice, 18 mg/kg/day
  mice in which tumors completely disappeared: 2 mice
  mice in which tumors did not grow in size: 5 mice
  mice in which tumors regressed: 1 mouse
c52 18 mg/kg/day i.v., 5 days
  adverse side effects: without any noticeable adverse side effects
18 mg/kg/day
  CWR22R tumor growth: suppressed growth
Listed as C52, 18 mg/kg/day
  CWR22R tumor growth: effective

Reference: patent US8835447B2, “Method for treating androgen receptor positive cancers” (priority 2009, dated 2014)
